Data published in patent US20220184071A1, “GEPOTIDACIN FOR USE IN THE TREATMENT OF BACTERIAL URINARY TRACT INFECTIONS” (GlaxoSmithKline Intellectual Property Development Limited, priority 2019, published 2022).
In brackets after ≈: the same amount, converted by molar mass. Read-outs that look alike come from different tables or passages of the source.

Tests used:
[1] = Pharmacokinetics in infected mice (plasma, kidney, thigh; PopPK); assay type: in vivo, mouse
Procedure: PK and PD studies using gepotidacin were conducted in murine (male CD-1 mice) thigh and kidney infections. The administered doses ranged from 1 to 200 mg/kg SC every 6 hours starting 1h post infection. Infected tissues were evaluated for bacterial burden at 24 h post infection (baseline controls at 1 h post infection).
Plasma and tissue samples (kidney or thigh homogenates) were collected at 15, 30, 60, 120, 240 and 360 minutes. A population PK (PopPK) model was built in NONMEM using plasma exposures.
Specific pathogen free male CD-1 mice weighing ˜27 g were used throughout the PK and PD studies. For most studies, mice were rendered neutropenic with two IP doses of cyclophosphamide on day −4 (150 mg/kg) and day −1 (100 mg/kg). Plasma and tissue samples (kidney and/or thigh) were collected at 15, 30, 60, 120, 240 and 360 minutes post dose from competent or neutropenic infected mice (N=3/group) following a single subcutaneous (SC) dose of 6.25-200 mg/kg. Samples were assayed by LC/MS/MS; the lower limit of quantification was 0.05 ug/mL.
Non-compartmental Analysis (NCA): plasma NCA was conducted using Phoenix WinNonLin 6.3 (Pharsight) with the linear up log down method.
Population Pharmacokinetics (PopPK): • Total drug concentrations in plasma were converted to free drug values based on protein binding of 24% in mice. • A PopPK model was built to describe the drug exposure in plasma over time using NONMEM (7.3) and the software R (version 3.4.0) for diagnostic plots. • The final model was used to simulate exposures at the multiple dose levels evaluated in the efficacy studies.

Lactobacillus rhamnosus = test: MIC by agar dilution, drug-resistant isolates; assay type: cell-based; settings: imipenem R; 18 isolates
Procedure: (§1) Antimicrobial activity was determined by agar dilution using the Clinical and Laboratory Standards Institute (CLSI) recommended procedure.
(§2) The compounds were tested in serial two-fold dilutions and the minimum inhibitory concentration (MIC) was determined as the lowest concentration of the compound that inhibited visible growth. Gepotidacin was tested against 333 gram-negative anaerobic and 203 gram-positive anaerobic isolates collected from clinical samples in North America and Europe from 2000 to 2017; the majority collected from 2013 to 2016.
(§3) Additional analysis was performed from the results of the study described in Method 1 above, to determine the in vitro activity of gepotidacin against gram-negative and gram-positive anaerobic organisms with resistance to ceftriaxone, clindamycin, imipenem, metronidazole, moxifloxacin and piperacillin/tazobactam.

[2] = test system: Eubacterium, non-speciated; test: MIC by agar dilution, drug-resistant isolates; assay type: cell-based; settings: 1 isolate
Procedure: as §1, §2, §3

Prevotella bivia = test: MIC by agar dilution, drug-resistant isolates; assay type: cell-based
Procedure: as §1, §2, §3

Bifidobacterium longum = test: MIC by agar dilution, drug-resistant isolates; assay type: cell-based; settings: moxifloxacin R; 1 isolate
Procedure: as §1, §2, §3

Porphyromonas somerae = test: MIC by agar dilution, drug-resistant isolates; assay type: cell-based; settings: clindamycin R; 1 isolate
Procedure: as §1, §2, §3

[3] = test system: coagulase-negative staphylococci; test: MIC by CLSI broth microdilution, Example 5 Method 1; assay type: cell-based
Procedure: (§4) Gepotidacin was tested against 101 coagulase-negative staphylococci and 105 viridans streptococci in serial two-fold dilutions and the minimum inhibitory concentration (MIC) was determined as the lowest concentration of the compound that inhibited visible growth. All of the clinical isolates were collected in 2009-2012 from patient infections from North America, Europe, Latin America and Asia-Pacific medical centers and were mainly obtained from patients with documented nosocomial and community-acquired respiratory tract infections, bloodstream infections and skin and skin structure infections. Ceftriaxone, meropenem, penicillin, levofloxacin, moxifloxacin and linezolid were included as comparators when testing the viridans streptococci isolates. Oxacillin, levofloxacin, moxifloxacin and linezolid, were included as comparators when testing the coagulase-negative staphylococci isolates. MICs were determined by broth microdilution according to CLSI methods.

viridans streptococci = test: as above; assay type: cell-based; settings: 105 isolates
Procedure: as §4

[4] = test system: Citrobacter freundii complex; test: Phase IIa non-qualifying baseline uropathogen MIC; assay type: cell-based; settings: baseline uropathogen recovered at <10^5 CFU/mL
Procedure: (§5) This phase IIa single center study evaluated the safety, tolerability, pharmacokinetics, and efficacy of oral gepotidacin 1500 mg BID for 5 days in female subjects with acute cystitis. Clean catch mid-stream urine specimens were obtained for quantitative culture by standard methods. Urine samples were taken from all participants pre-treatment (baseline) and at all post-baseline visits. All urine samples were sent to a central laboratory (PPD Global Clinical Laboratories, Highland Heights, Ky., USA) for Gram stain, quantitative culture, pathogen identification and susceptibility testing. See FIG. 1 for participant disposition and study outline.
(§6) Susceptibility testing by CLSI broth microdilution and gradient diffusion (fosfomycin only) was conducted (CLSI, 2015, Methods for dilution antimicrobial susceptibility tests for bacteria that grow aerobically; approved standard-tenth edition; and CLSI, 2018. Performance Standards for Antimicrobial Susceptibility Testing; Twenty-seventh Informational Supplement M100-S28). Inclusion in the microbiological intent-to-treat population (micro-ITT), required growth of a qualifying baseline uropathogen (≥10^5 CFU/mL). See FIG. 2 for the baseline algorithm.

Acinetobacter pittii = test: Phase IIa non-qualifying baseline uropathogen MIC; assay type: cell-based; settings: baseline uropathogen recovered at <10^5 CFU/mL
Procedure: as §5, §6

[5] = Exposure in epithelial lining fluid (ELF) and alveolar macrophages (AM), healthy subjects; assay type: in vivo; settings: human, single 1000 mg IV infusion over 2 hours
Procedure: Antibiotic target site exposures play a key role as suboptimal levels may lead to therapeutic failure and resistance. Across multiple clinical studies, exposures to gepotidacin were assessed in plasma and other matrices, such as urine, saliva, epithelial lining fluid (ELF) and Alveolar Macrophages (AM).
Bronchoalveolar lavage samples were collected to determine gepotidacin exposures in ELF and AM following a single 1000 mg IV infusion over 2 hours to healthy subjects. Saliva exposure was assessed in healthy volunteers following 1500 mg oral single dose. Gepotidacin exposures in urine was assessed in women with acute uUTI following 1500 mg BID oral doses for 5 days.

Bacteroides uniformis = test: MIC by broth microdilution, drug-resistant isolates; assay type: cell-based
Procedure: as §3

Bacteroides ovatus = test: as above; assay type: cell-based
Procedure: as §3

Bacteroides vulgatus = test: as above; assay type: cell-based
Procedure: as §3

With `O=c1ccc2ncc(=O)n3c2n1C[C@H]3CN1CCC(NCc2cc3c(cn2)OCCC3)CC1` [gepotidacin, (2R)-2-({4-[(3,4-dihydro-2H-pyrano[2,3-c]pyridin-6-ylmethyl)amino]-1-piperidinyl}methyl)-1,2-dihydro-3H,8H-2a,5,8a-triazaacenaphthylene-3,8-dione] the duration of infusion ([1]; PopPK final parameter estimate, plasma) was 0.262 h, the “AUC0-6 in kidney, fold higher than in plasma” value ([1]; SC dosing, infected mice) was 4- to 5 fold and the “AUC0-6 in thigh relative to plasma” value ([1]; SC dosing, infected mice) was “approximately half of plasma”. For the same compound, the clearance ([1]; male, CD-1, mouse, subcutaneous, PopPK final parameter estimate, plasma) was 1.73 mL/min, the Vd ([1]; male, CD-1, mouse, subcutaneous, PopPK final parameter estimate, plasma, read-out: volume of distribution) was 0.151 L and the fraction unbound ([1]; mouse, plasma, mice, read-out: protein binding (converted)) was 0.76. For the same compound, the “Gepotidacin MIC range” value (Lactobacillus rhamnosus) was 0.06 to 1 µg/mL, the “Gepotidacin MIC range” value ([2]; ceftriaxone R) was 2 µg/mL and the “Gepotidacin MIC range” value ([2]; clindamycin R) was 2 µg/mL. For the same compound, the “Gepotidacin MIC range” value ([2]; moxifloxacin R) was 2 µg/mL, the “Gepotidacin MIC range” value (Prevotella bivia; ceftriaxone R, 1 isolate) was 1 µg/mL and the “Gepotidacin MIC range” value (Prevotella bivia; clindamycin R, 2 isolates) was 0.5 to 4 µg/mL. The “Gepotidacin MIC range” value (Prevotella bivia; moxifloxacin R, 2 isolates) was 4 µg/mL, the “Gepotidacin MIC range” value (Bifidobacterium longum) was 0.12 µg/mL and the “Gepotidacin MIC range” value (Porphyromonas somerae) was 0.06 µg/mL. The MIC90 ([3]; 101 isolates) was 0.5 µg/mL (≈ 1.11 µM), the “MIC90 fold lower than the comparators tested” value ([3]; coagulase-negative staphylococci and viridans streptococci, except meropenem and moxifloxacin against viridans group streptococci) was 2 to 64 fold and the MIC90 (viridans streptococci) was 0.5 µg/mL (≈ 1.11 µM). It also gave an MIC [4] of 1 µg/mL (≈ 2.23 µM), an MIC (Acinetobacter pittii) of 1 µg/mL (≈ 2.23 µM) and a Kp ([5]; alveolar macrophages, read-out: AM AUC(0-12) ratio to unbound plasma) of 178. For the same compound, the Kp ([5]; epithelial lining fluid, read-out: ELF AUC(0-12) ratio to unbound plasma) was 1.84, the “Gepotidacin MIC range” value (Bacteroides uniformis; ceftriaxone R, 2 isolates) was 0.5 to 2 µg/mL and the “Gepotidacin MIC range” value (Bacteroides uniformis; moxifloxacin R, 1 isolate) was 0.5 µg/mL. For the same compound, the “Gepotidacin MIC range” value (Bacteroides ovatus; ceftriaxone R, 5 isolates) was 0.5 to 2 µg/mL, the “Gepotidacin MIC range” value (Bacteroides ovatus; clindamycin R, 5 isolates) was 0.25 to 4 µg/mL and the “Gepotidacin MIC range” value (Bacteroides ovatus; moxifloxacin R, 3 isolates) was 0.5 to 4 µg/mL. For the same compound, the “Gepotidacin MIC range” value (Bacteroides vulgatus; ceftriaxone R, 7 isolates) was 0.06 to 4 µg/mL, the “Gepotidacin MIC range” value (Bacteroides vulgatus; clindamycin R, 4 isolates) was 0.06 to 0.5 µg/mL and the “Gepotidacin MIC range” value (Bacteroides vulgatus; moxifloxacin R, 3 isolates) was 0.25 to 4 µg/mL.
